The source of these data is US20170101521A1, “THERMAL BASE GENERATOR, THERMOSETTING RESIN COMPOSITION, CURED FILM, CURED FILM MANUFACTURING METHOD, AND SEMICONDUCTOR DEVICE” (FUJIFILM Corporation, priority 2014, published 2017).

The nature of data set [1]: Base generation temperature by differential scanning calorimetry. Conditions: DSC, heated to 250° C. at 5° C./min in pressure-resistant capsule; peak temperature of lowest exothermic peak. The class given is physicochemical. On the procedure: The base generation temperature may be measured, for example, by heating a compound to 250° C. at a rate of 5° C./minute in a pressure-resistant capsule, reading a peak temperature of an exothermic peak having the lowest temperature, and taking the peak temperature as a base generation temperature, using differential scanning calorimetry.
Using differential scanning calorimetry (Q2000, manufactured by TA), (A) a thermal base generator was heated to 250° C. at 5° C./min in a pressure-resistant capsule. The peak temperature of an exothermic peak having the lowest temperature was read to measure such a peak temperature as a base generation temperature.
Background: DSC measures the heat that a sample takes up or gives off during a temperature scan.

The conditions of data set [2]: literature value, or calculated with ACD/pKa for compounds not listed; cited from earlier work.

SMILES strings stand for the structures.

For `C1CNC2=[N+](C1)CCCN2.O=C([O-])/C=C\C(=O)O` [X-9, reference compound], the Base generation temperature result in data set [1] is “Lower than 40 °C”.

`C[N+](C)(CC(=O)c1ccccc1)Cc1ccccc1.O=C([O-])/C=C\C(=O)O` [A-41]: the pKa1 of anion in data set [2] is reported as 1.9. The same molecule came in with a Base generation temperature in data set [1] of 150 °C.

`CCCCCCCCCCCC[N+](C)(C)CC(=O)c1ccccc1.O=C([O-])CCC(=O)O` [A-22]: the pKa1 of anion in data set [2] is reported as 4.2. In data set [1], this molecule gave a Base generation temperature of 130 °C.

Molecule `O=C(O)CC(Nc1ccccc1)C(=O)O` (stereo not drawn) [A-11] gave a Base generation temperature in data set [1] of 200 °C.

On to `Cc1ccc(NC(CC(=O)O)C(=O)O)cc1` (stereo not drawn) [A-10], for which the Base generation temperature in data set [1] stood at 200 °C.

In turn, `C1CCC2=[N+](CC1)CCCN2.O=C([O-])CCC(=O)O` [A-12] yielded a Base generation temperature in data set [1] of 150 °C.

Regarding `O=C(O)CN(CC(=O)O)c1ccc(-c2ccccc2)cc1` [A-4], in data set [1], the Base generation temperature is 150 °C.

In the case of `C=CCN(CC(=O)O)CC(=O)O` [A-17], the Base generation temperature in data set [1] was determined as 190 °C.

For the molecule `CCCCCCCC[N+](C)(C)CC(=O)c1ccccc1.O=C([O-])/C=C\C(=O)O` [A-39], the pKa1 of anion in data set [2] is on record as 1.9. In data set [1], this molecule showed a Base generation temperature of 150 °C.

In the case of `O=C(C[N+]12CCN(CC1)CC2)c1ccccc1.O=C([O-])C(=O)O` [A-31], the pKa1 of anion in data set [2] is on record as 1.2. The molecule further yielded a Base generation temperature in data set [1] of 140 °C.

Consider `C[n+]1ccccc1.O=C([O-])C(=O)O` [A-37], for which, in data set [2], the pKa1 of anion is given as 1.2. Further, the Base generation temperature in data set [1] was found to be 180 °C.

Turning to `CCN(CC)CC.O=C(O)CCC(=O)O` [A-13], the Base generation temperature in data set [1] worked out at 170 °C.

In data set [1], `O=C(O)CN(CC(=O)O)c1ccc(Cc2ccc(N(CC(=O)O)CC(=O)O)cc2)cc1` [A-8] had a Base generation temperature of 145 °C.

On to `O=C(O)CN(CC(=O)Nc1ccccc1)c1ccccc1` [A-16], for which the Base generation temperature in data set [1] was 130 °C.

Regarding `Cc1ccc(N(CC(=O)O)CC(=O)O)cc1` [A-2], the Base generation temperature in data set [1] amounted to 140 °C.

On to `O=C(O)CNc1ccccc1` [X-6, reference compound], for which the Base generation temperature result in data set [1] is “Higher than 200 °C”.

In the case of `O=C(O)CN(CC(=O)O)c1ccc(C(F)(F)F)cc1` [A-6], in data set [1], the Base generation temperature worked out at 155 °C.

`CC(C)(c1ccc(N(CC(=O)O)CC(=O)O)cc1)c1ccc(N(CC(=O)O)CC(=O)O)cc1` [A-9] returned a Base generation temperature in data set [1] of 140 °C.

As for `C1CN2CCN1CC2.O=C(O)C(=O)O` [A-33], in data set [2], the pKa1 of anion is given as 1.2. The Base generation temperature in data set [1] stood at 70 °C.

For the molecule `C[N+]1(C)CCCCC1.O=C([O-])C(=O)O` [A-32], the pKa1 of anion in data set [2] is listed as 1.2. Also, in data set [1], the Base generation temperature turned out to be 190 °C.

Consider `CC[N+](CC)(CC)C(c1ccccc1)c1ccccc1.O=C([O-])C(=O)O` [A-36], for which the pKa1 of anion in data set [2] is recorded as 1.2. The molecule also showed a Base generation temperature in data set [1] of 170 °C.

As to `C=C(C)C(=O)OC(CO)N(CC(=O)O)c1ccccc1` (stereo not drawn) [X-4, reference compound], the Base generation temperature entry in data set [1] is “Higher than 200 °C”.

Regarding `CN(CC(=O)O)CC(=O)O` [X-7, reference compound], in data set [1], the Base generation temperature entry was “Higher than 200 °C”.

Turning to `CCCCCCCCCCCC[N+](C)(C)CC(=O)c1ccccc1.O=C([O-])C(=O)O` [A-21], in data set [2], the pKa1 of anion is reported as 1.2. The Base generation temperature in data set [1] came to 150 °C.

For `CCC(O)C[N+](C)(C)[N-]C(=O)c1ccccc1OC` (stereo not drawn) [X-1, reference compound], the Base generation temperature in data set [1] was determined as 80 °C.

Consider `O=C(O)CN(CC(=O)O)c1cc(C(F)(F)F)cc(C(F)(F)F)c1` [A-5], for which the Base generation temperature in data set [1] is 155 °C.

`COc1ccc(N(CC(=O)O)CC(=O)O)cc1` [A-3] registered a Base generation temperature in data set [1] of 140 °C.

Take `CCCCCC[N+](C)(C)CC(=O)c1ccccc1.O=C([O-])/C=C\C(=O)O` [A-38]: in data set [2], the pKa1 of anion is recorded as 1.9. Further, the Base generation temperature in data set [1] was 150 °C.

As for `CC(=O)c1ccc(N(CC(=O)O)CC(=O)O)cc1` [A-7], the Base generation temperature in data set [1] is 155 °C.

Take `CCCCCCCCCCCC[N+](C)(C)CC(=O)c1ccc2ccccc2c1.O=C([O-])/C=C\C(=O)O` [A-23]: the pKa1 of anion in data set [2] is 1.9. Also, in data set [1], the Base generation temperature was 140 °C.

In the case of `C[N+](C)(CC(=O)c1ccccc1)C1CCCCC1.O=C([O-])/C=C\C(=O)O` [A-40], the pKa1 of anion in data set [2] is given as 1.9. In data set [1], this molecule registered a Base generation temperature of 150 °C.

As for `O=C(C[N+]1=C2CCCCCN2CCC1)c1ccccc1.O=C([O-])C(=O)O` [A-28], in data set [2], the pKa1 of anion is listed as 1.2. In data set [1], the Base generation temperature came to 140 °C.

`C=Cc1ccc(NCC(=O)O)cc1` [X-5, reference compound]: in data set [1], the Base generation temperature result was “Higher than 200 °C”.

As for `O=C(C[n+]1ccccc1)c1ccccc1.O=C([O-])C(=O)O` [A-27], in data set [2], the pKa1 of anion was 1.2. In addition, the Base generation temperature in data set [1] is 140 °C.

As to `C1CCC2=[N+](CC1)CCCN2.O=C([O-])C(=O)O` [A-34], the pKa1 of anion in data set [2] is recorded as 1.2. This molecule gave a Base generation temperature in data set [1] of 80 °C.

In the case of `O=C(C[N+]1=C2CCCN2CCC1)c1ccccc1.O=C([O-])C(=O)O` [A-29], the pKa1 of anion in data set [2] is 1.2. The same molecule registered a Base generation temperature in data set [1] of 140 °C.

In data set [1], `O=C(O)CN(CC(=O)O)c1ccccc1` [A-1] gave a Base generation temperature of 145 °C.

For `CCCCC(CC)C[N+](C)(C)CC(=O)c1ccccc1.O=C([O-])/C=C\C(=O)O` (stereo not drawn) [A-42], in data set [2], the pKa1 of anion is on record as 1.9. In addition, the Base generation temperature in data set [1] is 150 °C.

`O=C(O)CN(CCN(CC(=O)O)CC(=O)O)CC(=O)O` [X-8, reference compound]: the Base generation temperature result in data set [1] was “Higher than 200 °C”.

Turning to `CCCCCCCCCCCC[N+](C)(C)CC(=O)c1ccccc1.O=C([O-])/C=C\C(=O)O` [A-18], in data set [2], the pKa1 of anion is 1.9. Also, the Base generation temperature in data set [1] is 150 °C.

As for `C[N+]1(CC(=O)c2ccccc2)CCCCC1.O=C([O-])C(=O)O` [A-30], the pKa1 of anion in data set [2] is reported as 1.2. In data set [1], this molecule came in with a Base generation temperature of 140 °C.
